Bounds are passed on as bounds.

Assay [1] deals with T1, D1 (Homo sapiens, UniProt P21728). The experiment in a line: D1R GS-mediated cAMP accumulation GloSensor assay. It is filed as cell-based. The settings on record: for Emax: read-out: GS-cAMP EMAX; for activity in GS-cAMP accumulation (in words): GloSensor. In general terms: Changes in cAMP serve as a functional read-out for many G protein-coupled receptors.
Assay [2] deals with T1, D1. The assay is described as follows: BRET β-arrestin2 recruitment assay. Type of assay: cell-based. The settings on record: for activity in β-arrestin2 recruitment (in words): BRET; for Emax: read-out: β-arrestin2 EMAX. On the technique in general: BRET reads energy transfer from a luciferase to a nearby fluorophore.
The test system of the next assay is 6-OHDA-lesioned mice. The experiment in a line: Motor activity study in 6-OHDA-lesioned mice. It is filed as in vivo. To be noted: 5 mg/kg i.p.

T1 sequence (P21728 whole entry): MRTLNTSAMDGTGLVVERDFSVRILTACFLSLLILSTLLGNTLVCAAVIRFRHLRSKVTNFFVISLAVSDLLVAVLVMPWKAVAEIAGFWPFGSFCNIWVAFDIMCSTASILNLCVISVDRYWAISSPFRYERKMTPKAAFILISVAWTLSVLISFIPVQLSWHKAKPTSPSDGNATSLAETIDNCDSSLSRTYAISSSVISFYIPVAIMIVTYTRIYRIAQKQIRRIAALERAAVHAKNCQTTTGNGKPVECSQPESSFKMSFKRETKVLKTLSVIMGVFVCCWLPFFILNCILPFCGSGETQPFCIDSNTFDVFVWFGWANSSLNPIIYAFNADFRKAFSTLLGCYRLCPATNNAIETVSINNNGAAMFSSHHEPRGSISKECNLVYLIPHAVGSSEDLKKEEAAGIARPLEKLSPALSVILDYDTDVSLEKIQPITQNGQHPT

On to `Cc1cc(Oc2nccc3occc23)ccc1-c1cc(=O)[nH]cn1` [Compound 5, 6-(4-(Furo[3,2-c]pyridin-4-yloxy)-2-methylphenyl)pyrimidin-4(3H)-one], for which, at D1 [1], the midpoint of the response, the EC50, lay at 133 nM and the maximum response (Emax) (commonly the maximal effect, on the per cent scale that the assay sets) is 96%. Moreover, on D1 [2], the EC50 (in general, the concentration giving half of the maximal effect) is more than 10000 nM.
Turning to `Cc1cc(O)ccc1-c1c(C)c(=O)[nH]c(=O)n1C` [Compound 28, 6-(4-Hydroxy-2-methylphenyl)-1,5-dimethylpyrimidine-2,4-(1H,3H)-dione], the “activity in GS-cAMP accumulation (in words)” value on D1 [1] is “inactive”. Further, at D1 [2], the “activity in β-arrestin2 recruitment (in words)” value is “inactive”.
On to `Cc1cc(Oc2nccc3sccc23)ccc1-c1c(C)c(=O)[nH]c(=O)n1C` [Compound 39, 1,5-Dimethyl-6-(2-methyl-4-(thieno[3,2-c]pyridin-4-yloxy)-phenyl)pyrimidine-2,4(1H,3H)-dione], for which the EC50 amounted to 7 nM on D1 [1] and 13 nM on D1 [2]. Moreover, the figures for the maximum response (Emax) on D1 [1] and on D1 [2] were 104% and 30%, respectively.
As for `Cc1cc(Oc2nccc3ccccc23)ccc1-c1c(C)c(=O)[nH]c(=O)n1C` [Compound 38, 6-(4-(Isoquinolin-1-yloxy)-2-methylphenyl)-1,5-dimethylpyrimidine-2,4(1H,3H)-dione], at D1 [1], the concentration for a half-maximal effect (EC50) came to 0.4 nM and the Emax amounted to 115%. This molecule yielded a concentration giving a half-maximal response (EC50) on D1 [2] of more than 10000 nM.
With `Cc1cc(Oc2nccc3occc23)ccc1-c1c(C)c(=O)[nH]c(=O)n1C1CCC1` [Compound 20, 1-Cyclobutyl-6-(4-(furo[3,2-c]pyridin-4-yloxy)-2-methylphenyl)-5-methylpyrimidine-2,4(1H,3H)-dione], at D1 [1], the response was half-maximal at 0.8 nM (EC50) and the maximal response (Emax) turned out to be 82%. The “activity in β-arrestin2 recruitment (in words)” value at D1 [2] is given as “no activity”.
`Cc1c(-c2ccc(Oc3nccc4occc34)cc2)n(C)c(=O)[nH]c1=O` [Compound 27, 6-(4-(Furo[3,2-c]pyridin-4-yloxy)phenyl)-1,5-dimethylpyrimidine-2,4(1H,3H)-dione]: at D1 [1], the half-maximal effective concentration (EC50) is 0.08 nM and the Emax came to 96%. Moreover, on D1 [2], the half-maximal effective concentration (EC50) came to 40 nM and the Emax was 75%.
In the case of `Cc1cc(Oc2ncccc2C(F)(F)F)ccc1-c1c(C)c(=O)[nH]c(=O)n1C` [Compound 32, 1,5-Dimethyl-6-(2-methyl-4-((3-(trifluoromethyl)pyridin-2-yl)-oxy)phenyl)pyrimidine-2,4(1H,3H)-dione], the Emax on D1 [1] came out at 118%; at D1 [2], 30%.
As to `COc1ccc(-c2c(C)c(=O)[nH]c(=O)n2C)c(C)c1` [Compound 29, 6-(4-Methoxy-2-methylphenyl)-1,5-dimethylpyrimidine-2,4-(1H,3H)-dione], the “activity in GS-cAMP accumulation (in words)” value on D1 [1] is “inactive”. The “activity in β-arrestin2 recruitment (in words)” value at D1 [2] is “inactive”.
On to `COc1ccnc(Oc2ccc(-c3c(C)c(=O)[nH]c(=O)n3C)c(C)c2)c1` [Compound 31, 6-(4-((4-Methoxypyridin-2-yl)oxy)-2-methylphenyl)-1,5-dimethylpyrimidine-2,4(1H,3H)-dione], for which, at D1 [1], the EC50 was determined as 2 nM and the maximal effect (Emax) was found to be 108%. In addition, at D1 [2], the response was half-maximal at 52 nM (EC50) and the Emax came out at 27%.
As for `Cc1cc(Oc2nccc3occc23)ccc1-c1cc[nH]c(=O)c1` [Compound 3, 4-(4-(Furo[3,2-c]pyridin-4-yloxy)-2-methylphenyl)pyridin-2(1H)-one], at D1 [1], the concentration giving a half-maximal response (EC50) was determined as 176 nM and the Emax was 81%. Further, the “activity in β-arrestin2 recruitment (in words)” value at D1 [2] is given as “no activity”.
On the same counts, the results for `COc1ccnc(Oc2ccc(-c3c(C)c(=O)[nH]c(=O)n3C)c(C)c2)c1C#N` [Compound 33, 2-(4-(3,5-Dimethyl-2,6-dioxo-1,2,3,6-tetrahydropyrimidin-4-yl)-3-methylphenoxy)-4-methoxynicotinonitrile] are 23 nM, 59% and “no activity”.
Take `Cc1cc(Oc2nccc3occc23)ccc1-c1c(C)cn[nH]c1=O` [Compound 13, 4-(4-(Furo[3,2-c]pyridin-4-yloxy)-2-methylphenyl)-5-methylpyridazin-3(2H)-one]: on D1 [1], the concentration for a half-maximal effect (EC50) turned out to be 205 nM and the maximal response (Emax) stood at 82%. For the same molecule, the “activity in β-arrestin2 recruitment (in words)” value on D1 [2] is given as “no activity”.
With `Cc1cc(Oc2nccc3occc23)ccc1-c1cc(=O)[nH]c(=O)[nH]1` [Compound 9, 6-(4-(Furo[3,2-c]pyridin-4-yloxy)-2-methylphenyl)pyrimidine-2,4(1H,3H)-dione], the concentration giving a half-maximal response (EC50) at D1 [1] is 9 nM; at D1 [2] it was 2090 nM. Besides, the Emax on D1 [1] came to 78%; at D1 [2], 37%.
In the case of `Cc1cc(Oc2nccc3occc23)ccc1-c1cc(N)nc(N)n1` [Compound 8, 6-(4-(Furo[3,2-c]pyridin-4-yloxy)-2-methylphenyl)pyrimidine-2,4-diamine], at D1 [1], the EC50 is more than 10000 nM. On D1 [2], the “activity in β-arrestin2 recruitment (in words)” value is reported as “no activity”.
As for `Cc1cc(Oc2nccc(Cl)c2C(F)(F)F)ccc1-c1c(C)c(=O)[nH]c(=O)n1C` [Compound 34, 6-(4-((4-Chloro-3-(trifluoromethyl)pyridin-2-yl)oxy)-2-methyl-phenyl)-1,5-dimethylpyrimidine-2,4(1H,3H)-dione], at D1 [1], the EC50 worked out at 105 nM and the Emax came out at 82%. Also, the “activity in β-arrestin2 recruitment (in words)” value at D1 [2] is on record as “no activity”.
Take `Cc1cc(Oc2nccc3occc23)ccc1-c1c(C)cnc(=O)n1C` [Compound 11, 6-(4-(Furo[3,2-c]pyridin-4-yloxy)-2-methylphenyl)-1,5-dimethylpyrimidin-2(1H)-one]: at D1 [1], the half-maximal effective concentration (EC50) was determined as 1.8 nM and the Emax came to 88%. At D1 [2], the concentration for a half-maximal effect (EC50) worked out at 151 nM and the maximal effect (Emax) was found to be 19%.
Consider `Cc1cc(Oc2nccc3occc23)ccc1-c1cn[nH]c(=O)c1C` [Compound 12, 5-(4-(Furo[3,2-c]pyridin-4-yloxy)-2-methylphenyl)-4-methylpyridazin-3(2H)-one], for which, at D1 [1], it took 1.1 nM to reach a half-maximal effect (EC50) and the Emax stood at 92%. Also, at D1 [2], the EC50 is 196 nM and the Emax is 63%.
Take `Cc1cc(-c2c(C)c(=O)[nH]c(=O)n2C)ccc1Oc1nccc2occc12` [Compound 26, 6-(4-(Furo[3,2-c]pyridin-4-yloxy)-3-methylphenyl)-1,5-dimethylpyrimidine-2,4(1H,3H)-dione]: on D1 [1], the EC50 came out at 33 nM and the maximum response (Emax) amounted to 100%. For the same molecule, on D1 [2], the “activity in β-arrestin2 recruitment (in words)” value is recorded as “no activity”.
For `Cc1cc(Oc2nccc3occc23)ccc1C1=CCN(C)CC1` [Compound 1, 4-(3-Methyl-4-(1-methyl-1,2,3,6-tetrahydropyridin-4-yl)-phenoxy)furo[3,2-c]pyridine], the “activity in GS-cAMP accumulation (in words)” value on D1 [1] is “largely inactive”. For the same molecule, the “activity in β-arrestin2 recruitment (in words)” value at D1 [2] was “largely inactive”.
For `Cc1cc(Oc2ccccn2)ccc1-c1c(C)c(=O)[nH]c(=O)n1C` [Compound 30, 1,5-Dimethyl-6-(2-methyl-4-(pyridin-2-yloxy)phenyl)pyrimidine-2,4(1H,3H)-dione], the Emax was determined as 107% at D1 [1] and 40% at D1 [2].
For `CCn1c(-c2ccc(Oc3nccc4occc34)cc2C)c(C)c(=O)[nH]c1=O` [Compound 17, 1-Ethyl-6-(4-(furo[3,2-c]pyridin-4-yloxy)-2-methylphenyl)-5-methylpyrimidine-2,4(1H,3H)-dione], the EC50 on D1 [1] turned out to be 0.08 nM; on D1 [2], 13 nM. In addition, the Emax was 95% at D1 [1] and 65% at D1 [2].
For `Oc1cc2c(c(Cl)c1O)CCNCC2c1ccccc1` (stereo not drawn) [SKF81297, reference compound], the “forward locomotion compared to vehicle after 1 h” value in the assay on 6-OHDA-lesioned mice (61–90 min interval) is reported as “no longer displayed significantly increased forward locomotion”. Moreover, the “number of contralateral rotations vs vehicle” value in the assay with 6-OHDA-lesioned mice (90 min) is given as “significant increases”.
In the case of `Cc1cc(Oc2nccc3occc23)ccc1-c1c(C)c(=O)[nH]c(=O)n1CC1CC1` [Compound 19, 1-(Cyclopropylmethyl)-6-(4-(furo[3,2-c]pyridin-4-yloxy)-2-methylphenyl)-5-methylpyrimidine-2,4(1H,3H)-dione], at D1 [1], the half-maximal effective concentration (EC50) is 0.5 nM and the Emax stood at 84%. Also, the “activity in β-arrestin2 recruitment (in words)” value at D1 [2] is “no activity”.

(Values after paper PMC6785188 (ACS chemical neuroscience, 2019).)
